Reference: the supplement of paper PMC7695840
Counter-ions that a name gives are not always drawn.

Assays:
[1] = system: Staphylococcus aureus MW2 delta-mecA (mecA-); test: IC50 (growth, competition assay); conditions: cefoxitin: subinhibitory
In short: (§1)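 Signals from DsRed (540/590) and GFP (485/520) were scaled on every plate between single-strain control medians, with No Treatment then set to 0.5. The cells were a 1:1 mix of pre-induced fluorescent S. aureus MW2 strains with and without the resistance gene, grown unshaken for 20 h at 37 °C and 90% humidity in LB in 1536-well plates under a subinhibitory drug dose set each day. Each strain's IC50 was defined as the dose halving the No Treatment signal, or the maximal signal.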

[2] = system: Staphylococcus aureus MW2 (mecA+); test: IC50 (growth, competition assay); conditions: cefoxitin: subinhibitory
In short: as §1

Row | SMILES | IC50 ([1]; fluorescent label: DsRed) [µM] | IC50 ([1]; fluorescent label: GFP) [µM] | IC50 ([2]; fluorescent label: DsRed) [µM] | IC50 ([2]; fluorescent label: GFP) [µM]
1 | N#Cc1c(Cl)c(Cl)c(Cl)c(C#N)c1Cl [CHLOROTHALONIL] | < 9.85 | < 9.85 | < 9.85 | < 9.85
2 | CC(C)CCC[C@@H](C)[C@H]1CC[C@H]2[C@@H]3CC[C@H]4CC(=O)CC[C@]4(C)[C@H]3CC[C@]12C [CHOLESTAN-3-ONE] | 17.3 | 31.9 | > 150 | > 150
3 | CCn1nc(C(=O)O)c(=O)c2cc3c(cc21)OCO3 [CINOBAC] | 108 | 125 | > 150 | 115
4 | O=C(O)c1cn(C2CC2)c2cc(N3CCNCC3)c(F)cc2c1=O [CIPRO] | < 9.85 | < 9.85 | < 9.85 | < 9.85
5 | CC(=O)NC1CCSC1=O (stereo not given) [CITIOLASE] | 12.4 | 38.9 | 56.8 | 10.2
6 | CC1=C2C(=CO[C@H](C)[C@H]2C)C(O)=C(C(=O)O)C1=O [CITRININ] | 26.2 | 29.4 | 29.8 | 47.6
7 | CO/N=C(\C(=O)N[C@@H]1C(=O)N2C(C(=O)O)=C(COC(C)=O)CS[C@H]12)c1csc(N)n1 [CLAFORAN] | < 9.85 | < 9.85 | 15.6 | 15
8 | N#CC(c1ccc(Cl)cc1)c1c(Cl)cc(-n2ncc(=O)[nH]c2=O)cc1Cl (stereo not given) [CLINACOX] | < 9.85 | < 9.85 | 15.2 | 23
9 | NC1CCN(c2c(F)cc3c(=O)c(C(=O)O)cn(C4CC4)c3c2Cl)C1 (stereo not given) [CLINAFOXACIN HYDROCHLORIDE] | < 9.85 | < 9.85 | < 9.85 | < 9.85
10 | CCN(CC)CCOc1ccc(C(=C(Cl)c2ccccc2)c2ccccc2)cc1 [CLOMID] | 15.5 | < 9.85 | 23.7 | 34.5
11 | Oc1ccc(Cl)c2cccnc12 [CLOXYQUIN] | 33.8 | < 9.85 | 26.9 | 89.7
12 | CCCCC(CC)COC(=O)CC(C(=O)OCC(CC)CCCC)S(=O)(=O)O (stereo not given) [COLACE] | 18 | 13.5 | 56.6 | 52.5
13 | COc1cc2c(c(OC)c1OC)-c1ccc(=O)c(O)cc1[C@@H](NC(C)=O)CC2 [COLCHICEINE] | 45.5 | 51.2 | 81.3 | 84.6
14 | CN1CCN(CCCN2c3ccccc3Sc3ccc(Cl)cc32)CC1 [COMPAZINE] | 34 | 56.6 | 139 | 56.7
15 | CCCCCCCCCc1ccc(OCCOCCOCCOCCOCCOCCOCCOCCOCCO)cc1 [CONCEPTROL] | 12.8 | < 9.85 | 32 | 37
